Measurements published in ChEMBL document CHEMBL1127280, “Imidazolidinones and pyrazolones as novel ACAT inhibitors: Chemistry and biological activity” (Bioorg Med Chem Lett, 1994).

Key:
[1] = target: O-acyltransferase (Oryctolagus cuniculus, UniProt G1SFD9); test: In vitro Acyl coenzyme A:cholesterol acyltransferase inhibition by incubation with [14C]oleolyl-CoA and intestinal microsomes isolated from cholesterol-fed rabbits.; parameters: species or system Intestine
[2] = species: Rattus norvegicus; test: Cholesterol lowering activity was assessed in rats expressed as percent change in total cholesterol (TC) in cholic acid-cholesterol-peanut oil fed rats; assay type: functional

O-acyltransferase, sequence (G1SFD9 1-524): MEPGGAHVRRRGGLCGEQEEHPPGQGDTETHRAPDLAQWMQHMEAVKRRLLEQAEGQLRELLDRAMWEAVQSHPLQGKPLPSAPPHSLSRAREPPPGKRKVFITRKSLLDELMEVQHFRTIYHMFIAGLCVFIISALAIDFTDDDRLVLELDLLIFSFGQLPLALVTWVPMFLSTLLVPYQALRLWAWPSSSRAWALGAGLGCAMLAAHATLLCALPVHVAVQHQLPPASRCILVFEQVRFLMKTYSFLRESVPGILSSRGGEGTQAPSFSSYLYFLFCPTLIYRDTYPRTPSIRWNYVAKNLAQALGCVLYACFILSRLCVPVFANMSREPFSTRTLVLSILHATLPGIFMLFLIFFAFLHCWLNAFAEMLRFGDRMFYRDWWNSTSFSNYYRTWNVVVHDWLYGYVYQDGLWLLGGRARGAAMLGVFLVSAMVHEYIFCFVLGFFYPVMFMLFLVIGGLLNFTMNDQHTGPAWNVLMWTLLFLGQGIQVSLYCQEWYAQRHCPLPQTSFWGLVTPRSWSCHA

SMILES | IC50 [1] [µM] | Change in TC [2] [%]
CCCCCCCCCCC1=NN(c2c(C)cccc2C)C(=O)C1 | 5 | 
CCCCCCCC/C=C\CCCCCCCC1=NN(c2ccc(F)cc2F)C(=O)C1 | 5 | 
CCCCCCCC/C=C\CCCCCCCC1=NN(c2ccc([N+](=O)[O-])cc2[N+](=O)[O-])C(=O)C1 | 5 | -26
CCCCCCCC/C=C\CCCCCCCC1=NN(c2c(Cl)cccc2Cl)C(=O)C1 | 22.9 | -18
CCCCCCCC/C=C\CCCCCCCC1=NN(c2ccc(Cl)cc2Cl)C(=O)C1 | 9.9 | 
CC(C)c1cccc(C(C)C)c1N1CNC(C(c2ccccc2)c2ccccc2)C1=O (stereo unspecified) | 3.9 | 
CC(C)c1cccc(C(C)C)c1N1CN(C(c2ccccc2)c2ccccc2)CC1=O | 1.3 | 
Cc1cccc(C)c1N1N=C(CC(c2ccccc2)c2ccccc2)CC1=O | 50.8 | 
CC(C)c1cccc(C(C)C)c1N1CNC(Cc2ccccc2)C1=O (stereo unspecified) | 5.5 | -9
CC(C)c1cccc(C(C)C)c1N1CN(CC(c2ccccc2)c2ccccc2)CC1=O | 5 | -6
CCCCCCCC/C=C\CCCCCCCC1=NN(c2ccc(C)cc2C)C(=O)C1 | 5 | -26
